US11274074B2, “Pharmaceutical composition for ANO1 antagonist with anticancer activity” (INDUSTRY-ACADEMIC COOPERATION FOUNDATION, YONSEI UNIVERSITY, priority 2018, dated 2022)

Experiments:
[1] = Stability in mouse plasma (LC-MS/MS); type: in vitro ADME; conditions: for half-life at 5 μM: mouse, 37° C.
ANO2 [2] = biological target: T1, ANO2 (Homo sapiens (Human), UniProt Q9NQ90); test: Selective inhibition of ANO1 over ANO2 (Table 1), ANO2 IC50; type: cell-based
ANO1 = ANO1 (Homo sapiens (Human), UniProt Q5XXA6); test: Selective inhibition of ANO1 over ANO2 (Table 1), ANO1 IC50; type: cell-based
[3] = test system: PC-3 cells not expressing ANO1; test: MTS cell viability, PC-3 cells not expressing ANO1; type: cell-based; conditions: MTS assay, 24 hours
Procedure: (§1) The cell viability was determined by the MTS assay (mean±S.E., n=4; * P<0.05, ** P<0.01, *** P<0.001).
(§2) 24 hours later, after adding 20 μL of an MTS solution to each well and culturing at 37° C. for 30 minutes under 5% CO2, absorbance was measured at 490 nm using a microplate reader.
(§3) In FIG. 2B, PC-3 cells were treated with the [Chemical Formula 5] compound at different concentrations in the same manner as in FIG. 2A. […] After adding 20 μL of an MTS solution to each well and culturing at 37° C. for 30 minutes under 5% CO2, absorbance was measured at 490 nm using a microplate reader.

[4] = test system: PC-3 cells highly expressing ANO1; test: MTS cell viability, PC-3 cells highly expressing ANO1; type: cell-based; conditions: MTS assay, 24 hours
Procedure: as §1, §2, §3

[5] = test system: BxPC3 pancreatic cancer cells; test: MTS cell viability, BxPC3 pancreatic cancer cells highly expressing ANO1; type: cell-based; conditions: MTS assay, 24 hours
Procedure: (§4) The cell viability was determined by the MTS assay (mean±S.E., n=4).
as §2

MCF7 breast cancer cells = test: MTS cell viability, MCF7 breast cancer cells highly expressing ANO1; type: cell-based; conditions: MTS assay, 24 hours
Procedure: as §4, §2

ANO2 [6] = biological target: T1, ANO2; test: Short-circuit current in FRT cells expressing ANO2; type: cell-based
ANO1 (TMEM16A) = ANO1 (TMEM16A) (Homo sapiens (Human), UniProt Q5XXA6); test: Short-circuit current (apical membrane current) in FRT cells expressing ANO1; type: cell-based
Procedure: Specifically, Fischer rat thyroid (FRT) cells expressing ANO1 were differentiated by culturing in DMEM/Ham's F12 medium in Transwell for 5 days and then short-circuit current was measured using an Ussing chamber. Then, a regular HCO^3− solution (120 mM NaCl, 5 mM KCl, 1 mM MgCl2, 2.5 mM HEPES, 1 mM CaCl2, 10 mM glucose, 25 mM NaHCO3) was added to a basolateral bath of the Ussing chamber, and a luminal bath was stabilized for 20 minutes by creating a Cl^− gradient by maintaining at 70 mM Cl^−. Then, after treating with the [Chemical Formula 5] compound at different concentrations (0, 0.003, 0.01, 0.03, 0.1, 0.3, 1.0 μM) and carrying out reaction for 20 minutes, ATP (100 μM) was added and the inhibitory effect for Cl^− secretion was measured through ANO1 activity.

[7] = test system: ANO1 protein in PC-3 cells; test: Western blot of ANO1 protein level in PC-3 cells expressing ANO1 at high level; type: cell-based; conditions: for decrease of the expression level of ANO1: PC-3 cells
human WT-CFTR = human WT-CFTR (Homo sapiens (Human), UniProt P13569); test: Short-circuit current in FRT cells expressing CFTR; type: cell-based
[8] = test system: smooth muscle of the mouse ileum; test: Contraction of smooth muscle using mouse ileal section

T1 sequence (Q9NQ90 other isoform, or with tags, fused parts or gaps, species assumed): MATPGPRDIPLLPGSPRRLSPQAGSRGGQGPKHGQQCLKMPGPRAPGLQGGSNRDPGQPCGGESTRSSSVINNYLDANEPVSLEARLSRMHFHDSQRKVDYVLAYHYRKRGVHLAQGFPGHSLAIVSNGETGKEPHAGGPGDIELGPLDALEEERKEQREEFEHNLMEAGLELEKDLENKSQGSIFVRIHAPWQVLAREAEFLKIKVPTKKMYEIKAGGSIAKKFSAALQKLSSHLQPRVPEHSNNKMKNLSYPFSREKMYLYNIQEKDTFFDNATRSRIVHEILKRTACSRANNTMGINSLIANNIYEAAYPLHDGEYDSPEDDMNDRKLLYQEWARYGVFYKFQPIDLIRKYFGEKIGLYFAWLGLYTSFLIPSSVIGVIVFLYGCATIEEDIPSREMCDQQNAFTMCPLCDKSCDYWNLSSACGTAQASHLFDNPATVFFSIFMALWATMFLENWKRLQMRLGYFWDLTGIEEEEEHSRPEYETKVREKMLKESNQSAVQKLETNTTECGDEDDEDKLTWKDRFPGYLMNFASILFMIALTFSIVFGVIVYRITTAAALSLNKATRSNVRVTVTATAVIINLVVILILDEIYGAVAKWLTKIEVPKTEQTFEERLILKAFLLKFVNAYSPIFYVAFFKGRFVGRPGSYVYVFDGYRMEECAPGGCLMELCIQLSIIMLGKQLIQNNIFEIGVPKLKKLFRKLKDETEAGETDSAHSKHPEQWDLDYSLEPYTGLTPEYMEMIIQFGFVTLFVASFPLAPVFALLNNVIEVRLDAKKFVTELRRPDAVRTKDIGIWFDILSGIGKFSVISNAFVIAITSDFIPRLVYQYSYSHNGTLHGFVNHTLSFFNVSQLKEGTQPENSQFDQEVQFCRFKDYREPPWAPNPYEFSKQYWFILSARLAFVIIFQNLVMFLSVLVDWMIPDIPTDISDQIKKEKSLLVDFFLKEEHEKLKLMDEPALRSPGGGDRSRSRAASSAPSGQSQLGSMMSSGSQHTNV
ANO1, sequence (Q5XXA6 whole entry, species assumed): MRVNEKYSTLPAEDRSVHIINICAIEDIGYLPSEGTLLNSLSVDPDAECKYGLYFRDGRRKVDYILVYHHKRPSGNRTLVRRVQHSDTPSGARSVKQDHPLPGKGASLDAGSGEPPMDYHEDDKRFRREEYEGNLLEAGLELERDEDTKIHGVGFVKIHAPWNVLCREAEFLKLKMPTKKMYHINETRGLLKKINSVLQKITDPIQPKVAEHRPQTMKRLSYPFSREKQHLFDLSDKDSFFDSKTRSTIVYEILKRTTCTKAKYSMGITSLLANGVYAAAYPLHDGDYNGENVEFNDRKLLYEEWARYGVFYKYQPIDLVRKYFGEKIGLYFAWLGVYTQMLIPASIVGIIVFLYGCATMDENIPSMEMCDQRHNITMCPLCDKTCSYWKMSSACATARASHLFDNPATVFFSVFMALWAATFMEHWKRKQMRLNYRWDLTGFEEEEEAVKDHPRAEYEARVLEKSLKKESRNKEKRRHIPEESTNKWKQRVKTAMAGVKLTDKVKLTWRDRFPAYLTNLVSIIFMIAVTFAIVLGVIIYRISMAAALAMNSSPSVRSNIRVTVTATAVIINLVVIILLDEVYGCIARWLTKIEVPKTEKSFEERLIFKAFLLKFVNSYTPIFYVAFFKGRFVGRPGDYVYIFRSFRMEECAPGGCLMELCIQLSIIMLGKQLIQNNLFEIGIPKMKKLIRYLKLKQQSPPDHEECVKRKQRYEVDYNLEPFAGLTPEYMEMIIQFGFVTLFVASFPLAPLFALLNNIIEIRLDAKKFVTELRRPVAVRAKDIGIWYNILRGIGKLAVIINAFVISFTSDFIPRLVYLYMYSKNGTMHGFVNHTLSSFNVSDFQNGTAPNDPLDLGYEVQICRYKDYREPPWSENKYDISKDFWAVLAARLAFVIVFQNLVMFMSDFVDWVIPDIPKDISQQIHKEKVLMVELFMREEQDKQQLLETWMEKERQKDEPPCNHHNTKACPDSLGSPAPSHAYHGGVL
ANO1 (TMEM16A), sequence (Q5XXA6 whole entry, species assumed): as above
human WT-CFTR, sequence (P13569 whole entry): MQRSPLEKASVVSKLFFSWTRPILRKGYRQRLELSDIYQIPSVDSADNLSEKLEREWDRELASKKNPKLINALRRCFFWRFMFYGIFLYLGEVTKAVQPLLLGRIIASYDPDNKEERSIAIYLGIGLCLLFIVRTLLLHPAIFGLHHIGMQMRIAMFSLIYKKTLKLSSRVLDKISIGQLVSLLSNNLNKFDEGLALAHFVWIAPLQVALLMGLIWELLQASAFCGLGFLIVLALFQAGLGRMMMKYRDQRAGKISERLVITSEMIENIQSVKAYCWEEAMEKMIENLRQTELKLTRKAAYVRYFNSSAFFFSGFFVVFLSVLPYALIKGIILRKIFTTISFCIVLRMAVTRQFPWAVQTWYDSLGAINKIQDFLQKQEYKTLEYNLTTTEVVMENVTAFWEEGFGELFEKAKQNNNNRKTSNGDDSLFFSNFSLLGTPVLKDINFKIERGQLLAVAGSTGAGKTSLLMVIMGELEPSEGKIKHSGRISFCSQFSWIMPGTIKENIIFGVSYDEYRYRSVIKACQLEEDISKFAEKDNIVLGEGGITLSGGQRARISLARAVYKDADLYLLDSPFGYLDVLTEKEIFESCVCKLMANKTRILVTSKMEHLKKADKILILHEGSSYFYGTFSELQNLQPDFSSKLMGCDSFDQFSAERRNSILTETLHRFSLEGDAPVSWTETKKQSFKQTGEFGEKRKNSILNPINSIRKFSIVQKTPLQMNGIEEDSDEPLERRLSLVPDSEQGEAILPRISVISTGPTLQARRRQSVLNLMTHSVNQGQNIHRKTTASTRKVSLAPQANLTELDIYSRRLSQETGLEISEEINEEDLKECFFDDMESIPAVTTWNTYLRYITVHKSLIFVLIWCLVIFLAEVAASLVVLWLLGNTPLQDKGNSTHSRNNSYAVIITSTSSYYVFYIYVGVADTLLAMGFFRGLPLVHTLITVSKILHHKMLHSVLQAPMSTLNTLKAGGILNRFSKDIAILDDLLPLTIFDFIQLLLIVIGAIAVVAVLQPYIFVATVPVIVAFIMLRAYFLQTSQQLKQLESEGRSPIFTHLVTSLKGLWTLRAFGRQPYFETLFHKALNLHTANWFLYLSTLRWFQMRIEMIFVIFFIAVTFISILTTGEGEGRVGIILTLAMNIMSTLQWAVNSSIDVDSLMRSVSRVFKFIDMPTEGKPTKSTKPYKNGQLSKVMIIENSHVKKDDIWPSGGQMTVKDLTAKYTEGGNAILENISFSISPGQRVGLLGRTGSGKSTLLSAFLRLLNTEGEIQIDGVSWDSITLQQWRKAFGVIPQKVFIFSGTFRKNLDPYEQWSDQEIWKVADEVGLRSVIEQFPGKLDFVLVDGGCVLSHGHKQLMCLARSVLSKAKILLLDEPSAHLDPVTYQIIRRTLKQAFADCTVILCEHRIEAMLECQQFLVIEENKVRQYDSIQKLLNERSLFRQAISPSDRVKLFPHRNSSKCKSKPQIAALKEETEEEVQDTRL

Row | Compound | IC50 (ANO2 [2]) [µM] | IC50 (ANO1) [µM] | also measured
1 | COc1ccccc1/C=N/NC(=O)COc1ccc(Cl)cc1C [Ani9, reference compound] |  |  | plasma stability [1]: low; half-life at 5 μM [1]: 0.533 h
2 | COc1ccccc1/C=N/NC(=O)c1cc2cc(Cl)ccc2o1 [Comparative Example 1] | > 100 | > 100 | 
3 | COc1ccccc1-c1nnc(-c2cc3cc(Cl)ccc3o2)o1 [Comparative Example 2] | > 100 | > 100 | 
4 | COc1cccc(/C=N/NC(=O)COc2ccc(Cl)cc2C)c1 [Comparative Example 3] |  | > 100 | 
5 | COc1cccc(-c2nnc(COc3ccc(Cl)cc3C)o2)c1 [Comparative Example 4] | > 100 | > 100 | 
6 | Cc1cc(Cl)ccc1OCC(=O)N/N=C/c1cccc(F)c1 [Comparative Example 5] |  | > 100 | 
7 | Cc1cc(Cl)ccc1OCc1nnc(-c2cccc(F)c2)o1 [Comparative Example 6] | > 100 | > 100 | 
8 | Cc1cc(Cl)ccc1OCc1nnc(-c2ccccc2C(F)(F)F)o1 [Comparative Example 7] | > 100 | > 100 | 
9 | Cc1cc(Cl)ccc1OCc1nnc(-c2ccccc2OC(F)(F)F)o1 [Comparative Example 8] |  | > 100 | 
10 | Cc1cc(Cl)ccc1OCC(=O)N/N=C/c1cccc(OC(F)(F)F)c1 [Comparative Example 9] |  | > 100 | effect on cell viability of PC3 cells not expressing ANO1 [3]: insignificant effect; effect on cell viability of PC-3 cells highly expressing ANO1 [4]: insignificant effect; ANO1 inhibitory activity (in words) (ANO1): not to inhibit ANO1; effect on cell viability of BxPC3 pancreatic cancer cells highly expressing ANO1 [5]: insignificant effect; effect on cell viability of MCF7 breast cancer cells highly expressing ANO1 (MCF7 breast cancer cells): insignificant effect
11 | Cc1cc(Cl)ccc1OCc1nnc(-c2cccc(OC(F)(F)F)c2)o1 [Comparative Example 10] |  | > 100 | 
12 | Cc1cc(Cl)ccc1OCc1nnc(-c2ccccn2)o1 [Comparative Example 11] |  | > 100 | 
13 | CCOC(=O)c1cc2ccccn2c1/C=N/NC(=O)COc1ccc(Cl)cc1C [Comparative Example 12] | > 100 | > 100 | 
14 | Cc1cc(Cl)ccc1OCC(=O)N/N=C1/C(=O)N(C)c2ccccc21 [Comparative Example 13] |  | > 100 | 
15 | Cc1cc(Cl)ccc1OCC(=O)N/N=C1\CCOc2ccccc21 [Comparative Example 14] |  | > 100 | 
16 | Cc1cc(Cl)ccc1OCC(=O)Nc1nc2ccccc2s1 [Comparative Example 15] | > 100 | > 100 | 
17 | COC(=O)c1sc(NC(=O)COc2ccc(Cl)cc2C)nc1C [Comparative Example 16] |  | > 100 | 
18 | Cc1cc(Cl)ccc1OC(C)C(=O)N/N=C/c1ccccc1OC(F)(F)F (stereo not shown) [Comparative Example 17] |  | > 100 | 
19 | Cc1cc(Cl)ccc1OC(C)(C)C(=O)N/N=C/c1ccccc1OC(F)(F)F [Comparative Example 18] | > 100 |  | 
20 | Cc1cc(Cl)ccc1OC(F)(F)C(=O)N/N=C/c1ccccc1OC(F)(F)F [Comparative Example 19] | > 100 | > 100 | 
21 | CCOC(=O)C(F)Oc1ccccc1/C=N/NC(=O)COc1ccc(Cl)cc1C (stereo not shown) [Example 7] | 59.4 ± 0.45 | 15.7 ± 0.01 | 
22 | CFTRinh-172 [reference compound] |  |  | inhibition of CFTR (human WT-CFTR; 10 μM): completely inhibited

Second part, led by results:

Row | IC50 (ANO2 [2]) [µM] | IC50 (ANO1) [µM] | Compound | also measured
23 |  | 0.021 ± 0.005 | Cc1cc(Cl)ccc1OCC(=O)N/N=C/c1ccccc1OC(F)(F)F [Example 1] | inhibition at 100 µM (ANO2 [6]): 17.1%; plasma stability [1]: higher stability in the mouse plasma than Ani9; half-life at 5 μM [1]: 1.73 h; inhibition of ANO1 activity as compared to Ani9 (ANO1 (TMEM16A)): ≥ 4 times; IC50 (ANO1 (TMEM16A); FRT cells expressing ANO1, short-circuit current, ATP 100 μM): 0.022 µM; reduction of ANO1 expression level as compared to Ani9 ([7]; 3 μM): about 11.5 times; decrease of the expression level of ANO1 ([7]; 3 μM): 59.8±4.6%; reduction of ANO1 expression level as compared to Ani9 ([7]; 10 μM): ~2.28 times; decrease of the expression level of ANO1 ([7]; 10 μM): 66.5±4.7%; effect on cell viability of PC-3 cells highly expressing ANO1 [4]: selectively inhibited the growth of the PC-3 cells highly expressing ANO1 in a concentration-dependent manner; ANO1 inhibitory activity (in words) (ANO1): strongest ANO1 inhibitory activity; effect on cell viability of BxPC3 pancreatic cancer cells highly expressing ANO1 [5]: selectively inhibited the growth; inhibition of the activity of CFTR (human WT-CFTR; 100 μM, forskolin-activated CFTR): did not inhibit; effect on cell viability of MCF7 breast cancer cells highly expressing ANO1 (MCF7 breast cancer cells): selectively inhibited the growth; contraction frequency of smooth muscle [8]: no effect; contraction of smooth muscle of the mouse ileum [8]: strongly inhibited; decrease of maximum contraction intensity of smooth muscle ([8]; 300 nM): 53.3%; decrease of maximum contraction intensity of smooth muscle ([8]; 1 μM): 68.8%
24 | > 100 | 10.7 ± 0.14 | COc1ccccc1CNNC(=O)COc1ccc(Cl)cc1C [Example 2] | 
25 | 12.4 ± 0.05 | 19.4 ± 0.01 | COc1ccccc1-c1nnc(COc2ccc(Cl)cc2C)o1 [Example 3] | 
26 | > 100 | 21.2 ± 0.17 | Cc1cc(Cl)ccc1OCc1nnc(-c2ccccc2F)o1 [Example 4] | 
27 |  | 0.21 ± 0.04 | Cc1cc(Cl)ccc1OCC(=O)N/N=C/c1ccccc1C(F)(F)F [Example 5] | 
28 | > 100 | 0.3 ± 0.02 | C/C(=N\NC(=O)COc1ccc(Cl)cc1C)c1ccccc1OC(F)(F)F [Example 6] | reduction of ANO1 expression level as compared to Ani9 ([7]; 10 μM): about 1.21 times; decrease of the expression level of ANO1 ([7]; 10 μM): 28.9±0.9%; ANO1 inhibitory activity (in words) (ANO1): slightly weaker inhibitory activity than the compound of Example 1
29 |  | 25.7 ± 0.01 | Cc1cc(Cl)ccc1OCC(=O)N/N=C/c1ccco1 [Example 8] | 
30 | > 100 | 63.8 ± 0.02 | Cc1cc(Cl)ccc1OCc1nnc(-c2ccco2)o1 [Example 9] | 
31 | > 100 | 31.3 ± 0.57 | Cc1cc(Cl)ccc1OCC(=O)N/N=C/c1ccccn1 [Example 10] | 
32 | 13.1 ± 0.07 | 20.6 ± 0.02 | COc1ccccc1CNC(=O)COc1ccc(Cl)cc1C [Example 11] | 
33 | > 100 | 53.7 ± 0.05 | COc1cccc(CNC(=O)COc2ccc(Cl)cc2C)c1 [Example 12] | 
34 |  | 14.2 ± 0.07 | Cc1cc(Cl)ccc1OCC(=O)Nc1nc2cc(Cl)ccc2o1 [Example 13] | reduction of ANO1 expression level as compared to Ani9 ([7]; 10 μM): ~2.05 times; decrease of the expression level of ANO1 ([7]; 10 μM): 48.8±2.9%
35 | > 100 | 14.8 ± 0.01 | CCOC(=O)c1csc(NC(=O)COc2ccc(Cl)cc2C)n1 [Example 14] | 
